# According to US7576113B2, “Use of (E)-5-(4-chlorbenzyliden)-2,2-dimethyl-1-(1H-1,2,4-triazol-1-ylmethyl) cyclopentanol for combating rust attacks on soya plants” (BASF Aktiengesellschaft, priority 2004, dated 2009):
# Key:
# Type in all cases: in vivo
# Phakopsora pachyrhizi [1] = test: Seed treatment of soybean c.v. Embrapa 48, rust disease of leaf areas; settings: seed treatment 12.5, 25, 50, 100 and 250 g per 100 kg of seed, all cases, after 50 days; untreated at least 50%
# Description: Seed of soybean plants c.v. “Embrapa 48” were treated with a composition suitable for seed treatment, comprising triticonazole as active substance, at application rates in the range of from 12.5 g, 25 g, 50 g, 100 g and 250 g of triticonazole per 100 kg of seed. Thereafter, the seed was sown. The soybean plants thus grown were then inoculated with Phakopsora pachyrhizi. After 50 days, the level of rust disease of the leaf areas was determined. The disease level in the plants from untreated seed was at least 50%, whereas the disease level of the leaf area in plants from treated seed was less than 25% in all cases.
# Phakopsora pachyrhizi [2] = test: Curative activity against soybean rust via spray application, potted seedlings in greenhouse; settings: 3 days after inoculation, cultivar Hutcheson, untreated 80
# Description: A commercial ready-to-used formulation of Triticonazole (suspension concentrate, concentration of active ingredient 200 g/l) was diluted with water to the active ingredient concentraten (act.conc.) given in Table 2.
# Leaves of potted soybean seedlings of the cultivar “Hutcheson” were inoculated with a suspension of spores of soybean rust (Phakopsora pachyrhizi). The pots were placed in a chamber with high atmospheric humidity (90 to 95%) at 22 to 24° C. for 24 hours. During this time, the spores germinated and the germ tubes penetrated into the leaf tissue. After 3 days, the infected plants were sprayed to runoff point with an aqueous suspension having the concentration of active compound as given in table 2. The suspensions or emulsions were prepared as described above. After the spray coating was dry, the test plants were cultivated in a greenhouse at temperatures between 22 and 24° C. and at 90% relative humidity for 17 days. The extent of the rust development on the leaves was then determined.
# Phakopsora pachyrhizi [3] = test: Curative treatment of diseased soybean plants, field experiments
# Description: In field experiments, different varieties of soybean plants whose leaves were already infested with Phakopsora pachyrhizi were treated with an aqueous triticonazole preparation using equipment conventionally used under practice conditions. The application rates were from 20 to 200 g/ha. 25 days after the treatment, the disease level on the untreated, but infested, leaves had developed to such an extent that it covered 50% of the leaf area. In the treated plants, in contrast, Phakopsora pachyrhizi disease had only reached a maximum of 25%.
# Phakopsora pachyrhizi [4] = test: Protective treatment of soybean plants, field experiments
# Description: In field experiments, different varieties of soybean plants were treated with an aqueous triticonazole preparation. The application rates amounted to 20 to 200 g/ha. Thereafter, the plants were inoculated with Phakopsora pachyrhizi. 25 days after the treatment, the disease level on the untreated, but infested, leaves had developed to such an extent that it covered 50% of the leaf area. In the treated plants, in contrast, Phakopsora pachyrhizi disease had only reached a maximum of 25%.
# Phakopsora pachyrhizi [5] = test: Protective activity against soybean rust via seed treatment, field experiment in Brazil; settings: cultivar IAC 8.2, 60 DAT, untreated 40
# Description: A defined amound of a commercial ready-to-used formulation of Triticonazole (suspension concentrate, concentration of active ingredient 200 g/l), corresponding to the desired application (a.r.) rate of 5, 15, 30 und 50 g ai/100 kg soybean was diluted with water to a total volume of 1 Ltr./100 kg Soybean.
# Soybean seeds of the cultivar “IAC 8.2” were treated in a commercial device for dressing seeds with the thus prepared aqueous suspension of triticonazole and then seeded in a field experiment in Brazil. The leaves of the soybean plants thus grown were inoculated at an appropriate growing stage with a spore suspension of soybean rust (Phakopsora pachyrhizi). Thereafter the plants were kept wet for 6-8 h overnight by means of a finely dripping sprinkling device. During this time the spores germinated and their germ tubes penetrated into the leaf tissue. 60 days after treatment (60 DAT) or seeding, respectively, the extent of rust formation on the leaves of the infected plants was determinated.
smiles,measurement,setting,value
"CC1(C)CC/C(=C\c2ccc(Cl)cc2)C1(O)Cn1cncn1 (centres unmarked) [triticonazole, (E)-5-(4-chlorobenzylidene)-2,2-dimethyl-1-(1H-1,2,4-triazol-1-ylmethyl)cyclopentanol]",disease level of the leaf area,Phakopsora pachyrhizi [1],less than 25%
same,% infected leaf area (17 DAT),Phakopsora pachyrhizi [2]; spray act. conc. 1 ppm,9%
same,% infected leaf area (17 DAT),Phakopsora pachyrhizi [2]; spray act. conc. 4 ppm,1%
same,yield in comparison with the untreated control,"Phakopsora pachyrhizi [3]; 20 to 200 g/ha, field",markedly improved
same,Phakopsora pachyrhizi disease level (leaf area covered),"Phakopsora pachyrhizi [3]; aqueous preparation 20 to 200 g/ha, 25 days after treatment, different soybean varieties, untreated 50%",≤ 25%
same,yield in comparison with the untreated control,"Phakopsora pachyrhizi [4]; 20 to 200 g/ha, field",markedly improved
same,Phakopsora pachyrhizi disease level (leaf area covered),"Phakopsora pachyrhizi [4]; aqueous preparation 20 to 200 g/ha, inoculated after treatment, 25 days after treatment, untreated 50%",≤ 25%
same,% infected leaf area (60 DAT),Phakopsora pachyrhizi [5]; seed treatment a.r. 5 g/100 kg,23%
same,% infected leaf area (60 DAT),Phakopsora pachyrhizi [5]; seed treatment a.r. 15 g/100 kg,11%
same,% infected leaf area (60 DAT),Phakopsora pachyrhizi [5]; seed treatment a.r. 30 g/100 kg,9%
same,% infected leaf area (60 DAT),Phakopsora pachyrhizi [5]; seed treatment a.r. 50 g/100 kg,3%
